# Experimental data as given in patent publication US4894385A, “Imidazole derivatives as inhibitors of TXA2 synthesis” (Sankyo Company Limited, priority 1985, dated 1990).
# pIC50: −log10 of the molar value. Structures can show the parent of a compound that is named as a salt.
# How the values were obtained:
# synthesis of TXA2 = settings: in words; Prostaglandins, 13, 611 (1977); cited from earlier work
# TXA2 synthetase [1] = target: T1, TXA2 synthetase (Oryctolagus cuniculus, UniProt G1TAZ9); assay: Inhibition of Thromboxane A2 Synthetase (rabbit platelet microsomes); format: biochemical; settings: 0.1 mM [14C] arachidonic acid, 1 minute, 22° C., compounds as hydrochloride except No. 40 (free base)
# T1 construct: The platelet microsome fraction was separated from rabbit and from human blood; from tissue; host or cells: rabbit blood platelets, microsome fraction
# T1 sequence (G1TAZ9 1-530): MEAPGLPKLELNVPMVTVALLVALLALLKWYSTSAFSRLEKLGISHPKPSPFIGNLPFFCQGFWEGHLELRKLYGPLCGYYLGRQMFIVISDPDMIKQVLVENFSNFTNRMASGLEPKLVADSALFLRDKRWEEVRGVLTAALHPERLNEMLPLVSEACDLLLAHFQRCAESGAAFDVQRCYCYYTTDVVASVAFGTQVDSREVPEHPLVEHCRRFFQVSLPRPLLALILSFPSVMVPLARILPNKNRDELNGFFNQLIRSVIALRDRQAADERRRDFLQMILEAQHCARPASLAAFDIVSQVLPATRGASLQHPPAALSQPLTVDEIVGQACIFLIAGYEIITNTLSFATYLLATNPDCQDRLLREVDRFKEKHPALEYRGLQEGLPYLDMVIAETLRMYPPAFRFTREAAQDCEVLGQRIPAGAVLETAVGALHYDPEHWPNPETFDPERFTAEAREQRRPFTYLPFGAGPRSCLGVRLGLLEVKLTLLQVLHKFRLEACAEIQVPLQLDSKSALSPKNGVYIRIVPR
# Experimental: The platelet microsome fraction was separated from rabbit and from human blood by the method of Needleman et al. [Needleman et al., Science, 193, 163 (1976)]. The microsomal TXA2 synthetase activity in the presence of various of the compounds of the invention at various concentrations was assayed by a modification of the method of […] et al. [[…] et al., Prostaglandins, 21, 543 (1981)] by incubating the microsome fractions with labelled 1-[^14 C] arachidonic acid at a concentration of 0.1 mM for 1 minute at 22° C., to a final volume of 0.2 ml. The reaction was terminated by the addition of […] of 0.2M citric acid, and then the mixture was extracted with 1.5 ml of ethyl acetate. […] The developing solvent for the chromatography was a 90:8:1:0.8 by volume mixture of chloroform, methanol, acetic acid and water. […] The results are shown in the following Table as the IC50, i.e. the concentration required to inhibit the activity of thromboxane synthetase by 50%. […] The compounds of the invention are identified in the following Tables by the numbers heretofore assigned to them. All compounds were employed in the form of the hydrochloride, except Compound No. 40, which was employed as the free base. The results using rabbit platelet microsomes are given in Table 4, whilst the results using human platelet microsomes are given in Table 5.
# TXA2 synthetase [2] = target: T2, TXA2 synthetase (Homo sapiens, UniProt P24557); assay: Inhibition of Thromboxane A2 Synthetase (human platelet microsomes); format: biochemical; settings: 0.1 mM [14C] arachidonic acid, 1 minute, 22° C., compounds as hydrochloride
# T2 construct: The platelet microsome fraction was separated from rabbit and from human blood; from tissue; host or cells: human blood platelets, microsome fraction
# T2 sequence (P24557 1-533): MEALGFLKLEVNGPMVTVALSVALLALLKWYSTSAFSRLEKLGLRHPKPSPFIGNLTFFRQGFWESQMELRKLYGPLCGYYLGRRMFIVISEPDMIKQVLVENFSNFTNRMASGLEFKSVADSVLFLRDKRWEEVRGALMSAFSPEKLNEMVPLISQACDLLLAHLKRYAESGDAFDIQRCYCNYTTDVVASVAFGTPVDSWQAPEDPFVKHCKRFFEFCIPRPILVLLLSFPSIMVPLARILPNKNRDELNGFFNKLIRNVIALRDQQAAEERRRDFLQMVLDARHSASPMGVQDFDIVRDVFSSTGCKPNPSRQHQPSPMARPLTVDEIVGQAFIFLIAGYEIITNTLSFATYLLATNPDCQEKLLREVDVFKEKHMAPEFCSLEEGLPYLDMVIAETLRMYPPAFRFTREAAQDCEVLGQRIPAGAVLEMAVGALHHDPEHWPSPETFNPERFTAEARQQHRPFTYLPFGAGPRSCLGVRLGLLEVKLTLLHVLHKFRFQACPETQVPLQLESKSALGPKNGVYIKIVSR
# Experimental: The platelet microsome fraction was separated from rabbit and from human blood by the method of Needleman et al. [Needleman et al., Science, 193, 163 (1976)]. The microsomal TXA2 synthetase activity in the presence of various of the compounds of the invention at various concentrations was assayed by a modification of the method of […] et al. [[…] et al., Prostaglandins, 21, 543 (1981)] by incubating the microsome fractions with labelled 1-[^14 C] arachidonic acid at a concentration of 0.1 mM for 1 minute at 22° C., to a final volume of 0.2 ml. The reaction was terminated by the addition of […] of 0.2M citric acid, and then the mixture was extracted with 1.5 ml of ethyl acetate. […] The developing solvent for the chromatography was a 90:8:1:0.8 by volume mixture of chloroform, methanol, acetic acid and water.
# [3] = test system: pulmonary thromboembolisms caused by the intravenous injection of arachidonic acid; assay: Antithrombotic Activity in Rabbits (arachidonic acid i.v. sudden death); format: in vivo, male Japanese white rabbits; settings: Oryctolagus cuniculus; oral, 1 hour before 1.3 mg/kg i.v. arachidonic acid; sudden deaths; Probit's method
# Experimental: This test was carried out by a modification of the method of Silver et al. [Science, 183, 1085 (1974)]. The test animals used were male Japanese white rabbits of approximately 3 kg bodyweight.
# Each group of rabbits was administered orally the test compound at an appropriate dose and then, one hour after the oral administration, each was given 1.3 mg/kg or arachidonic acid by intravenous injection. The test animals were observed and sudden deaths during the test period were recorded. The ED50 was determined by Probit's method.
# Unmedicated rabbits were employed as a control, without administering any test compound, but these were all dead within several minutes after the injection of arachidonic acid, as a result of pulmonary thromboembolisms.
pIC50 (TXA2 synthetase [1]),SMILES,other results
7.17,"Cc1ccccc1C(Cn1ccnc1)Sc1ccc(C(=O)O)cc1 (stereo not drawn) [Compound 58, 4-[1-(2-Methylphenyl)-2-(imidazol-1-yl)ethylthio]benzoic acid hydrochloride]",pIC50 (TXA2 synthetase [2]): 7.28
7.16,"Cc1cc(C)c(C(Cn2ccnc2)Sc2ccc(C(=O)O)cc2)c(C)c1 (stereo not drawn) [Compound 62, 4-[1-(2,4,6-Trimethylphenyl)-2-(imidazol-1-yl)ethylthio]benzoic acid hydrochloride]",–
7.24,"COc1cccc(OC)c1C(Cn1ccnc1)Sc1ccc(C(=O)O)cc1 (stereo not drawn) [Compound 79, 4-[1-(2,6-Dimethoxyphenyl)-2-imidazol-1-yl)ethylthio]benzoic acid hydrochloride]",–
7.48,"COc1cc(OC)c(C(Cn2ccnc2)Sc2ccc(C(=O)O)cc2)c(OC)c1 (stereo not drawn) [Compound 84, 4-[1-(2,4,6-Trimethoxyphenyl)-2-(imidazol-1-yl)ethylthio]benzoic acid hydrochloride]",–

# The next lines start with the compound.
SMILES,pIC50 (TXA2 synthetase [1]),other results
Cn1ccnc1 [1-methylimidazole],–,inhibitory effect on the synthesis of TXA2 (synthesis of TXA2): some inhibitory effect
"O=C(O)c1ccc(SC(Cn2ccnc2)c2ccccc2)cc1 (stereo not drawn) [Compound 40, 4-[1-Phenyl-2-(imidazol-1-yl)ethylthio]benzoic acid]",7.15,–
"O=C(O)c1ccc(SC(Cn2ccnc2)c2ccc(Cl)cc2Cl)cc1 (stereo not drawn) [Compound 44, 4-[1-(2,4-Dichlorophenyl)-2-(imidazol-1-yl)ethylthio]-benzoic acid hydrochloride]",7.33,–
"O=C(O)c1ccc(SC(Cn2ccnc2)c2ccccc2Cl)cc1 (stereo not drawn) [Compound 49, 4-[1-(2-Chlorophenyl)-2-(imidazol-1-yl)ethylthio]benzoic acid hydrochloride]",7.09,–
"COc1ccccc1C(Cn1ccnc1)Sc1ccc(C(=O)O)cc1.Cl (stereo not drawn) [Compound 70, 4-[1-(2-Methoxyphenyl)-2-(imidazol-1-yl)ethylthio]benzoic acid hydrochloride]",7.23,pIC50 (TXA2 synthetase [2]): 7.14; ED50 [3]: 0.13 mg/kg
"COc1ccc(C(Cn2ccnc2)Sc2ccc(C(=O)O)cc2)c(OC)c1 (stereo not drawn) [Compound 74, 4-[1-(2,4-Dimethoxyphenyl)-2-(imidazol-1-yl)ethylthio]benzoic acid hydrochloride]",7.40,–
"Cl.O=C(O)c1ccc(OCCn2ccnc2)cc1 [Dazoxiben, 4-[2-(1-imidazolyl)ethoxy]benzoic acid hydrochloride, reference compound]",–,ED50 [3]: 1.1 mg/kg
c1c[nH]cn1 [imidazole],–,inhibitory effect on the synthesis of TXA2 (synthesis of TXA2): some inhibitory effect
